Here are results for 1 molecule from publication PMC5113208 (2016).

One may read the KD as the free concentration of one partner at which half of the binding sites on the other are occupied at equilibrium, for simple one-to-one binding. Higher therefore signals a looser complex.

Each structure is given as a SMILES string.

The test deals with RNA Spinach (RNA, aptamer) GGACGCGACCGAAAUGGUGAAGGACGGGUCCAGUGCGAAACACGCACUGUUGAGUAGAGUGUGAGCUCCGUAACUGGUCGCGUC
Description: fluorescence titration. To be noted: 140 mM KCl, 1 mM MgCl2; 10 mM NaH2PO4 pH 7.2, 0.05% Tween-20, room temperature.

Turning to `CC1=N/C(=C\c2cc(F)c(O)c(F)c2)C(=O)N1C`, the dissociation constant (KD) came out at 420 ± 40 nM.
